Assay results reported in patent publication US20240336594A1, “SIX-MEMBERED ARYL OR HETEROARYL AMIDES, AND COMPOSITION AND USE THEREOF” (BETTA PHARMACEUTICALS CO., LTD, priority 2021, published 2024).

Molecular target: T1, MALT1 (Homo sapiens, UniProt Q9UDY8)
T1 sequence (Q9UDY8 1-824): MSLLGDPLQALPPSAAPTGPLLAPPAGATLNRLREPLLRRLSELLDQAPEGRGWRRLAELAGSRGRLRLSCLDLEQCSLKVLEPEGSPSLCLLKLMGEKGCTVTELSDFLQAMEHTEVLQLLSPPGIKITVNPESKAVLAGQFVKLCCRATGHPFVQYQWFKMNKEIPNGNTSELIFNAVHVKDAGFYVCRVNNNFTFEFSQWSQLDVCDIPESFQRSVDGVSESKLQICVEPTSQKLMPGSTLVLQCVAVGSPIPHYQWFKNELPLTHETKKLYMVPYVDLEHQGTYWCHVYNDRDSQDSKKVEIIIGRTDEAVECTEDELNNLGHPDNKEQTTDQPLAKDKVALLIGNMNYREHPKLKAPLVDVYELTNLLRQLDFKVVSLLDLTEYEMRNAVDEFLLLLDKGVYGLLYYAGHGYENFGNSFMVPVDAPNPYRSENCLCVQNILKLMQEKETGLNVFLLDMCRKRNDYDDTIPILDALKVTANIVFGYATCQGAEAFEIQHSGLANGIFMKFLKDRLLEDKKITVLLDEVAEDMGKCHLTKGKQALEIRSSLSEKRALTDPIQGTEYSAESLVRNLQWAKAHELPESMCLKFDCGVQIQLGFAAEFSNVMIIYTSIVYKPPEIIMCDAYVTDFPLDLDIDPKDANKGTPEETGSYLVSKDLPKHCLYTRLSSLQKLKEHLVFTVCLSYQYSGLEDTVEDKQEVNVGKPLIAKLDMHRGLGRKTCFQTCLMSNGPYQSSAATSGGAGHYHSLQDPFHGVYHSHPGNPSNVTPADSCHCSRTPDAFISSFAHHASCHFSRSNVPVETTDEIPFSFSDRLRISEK
Test: MALT1 protease inhibition assay (AMC-labeled peptide, fluorescence 360/460)
Format: biochemical
Details: substrate Ac-LRSR-AMC, 15 min preincubation, 90 min at 25° C.
Experimental: Test compounds of the present invention (in 100% DMSO) were spotted into a 384-well dilution plate and serially diluted to the required concentrations with DMSO. Then, 0.2 μL of the test compounds were transferred into a new 384-well reaction plate by Echo following centrifugation. The MALT enzyme and its substrate, AMC-labeled peptide, were prepared in 1× protease buffer to yield 2× enzyme solution and 2× peptide solution. Subsequently, 10 μL of 2× enzyme solution was added into the 384-well reaction plate, incubating with the test compounds for 15 minutes at 25° C. After that, 10 μL of 2× peptide solution was added into the plate, continuing to incubate for 90 minutes at 25° C. The plate was then placed on an Envision multifunctional microplate reader to collect raw data, which would be converted into inhibition rate:
Inhibition rate %=(max−sample)/(max−min)*100%. • “max” values were measured using the reaction with enzyme but no compound treated, while “min” values were generated from control wells containing assay buffer without enzyme.
Curve fitting was done with Graphpad Prism software to determine the IC50 values. The specific experimental operations are as follows:
58.82 g Na Citrate·2H2O powder was added into 140 mL ddH2O and mixed in a 37° C. water bath. Once there were no visible particles, the remaining solutions were added successively with continuous stirring for 10 minutes. The final volume was adjusted to 200 mL. The buffer was stored at room temperature. DTT was added before use.
• 1) All test compounds were diluted from 10 mM stock solution into 1 mM in a 384 well dilution plate (labcyte, PP-0200); • 2) Ten various concentrations of the diluted compound solution above were obtained by serial dilution at an equal ratio of 1:3; • 3) 0.2 μL DMSO was transferred to two empty wells of the 384 reaction plate as blank controls without compound and enzyme respectively; • 4) 0.2 μL of the test compound at different concentrations was also transferred into the 384 reaction plate by Echo, with two duplicate wells for each concentration, then the plate was centrifuged at 1000 rpm for 1 min.
• 1) The MALT1 protease and AMC-labeled peptide was prepared in 1× protease buffer to obtain 2× enzyme solution and 2× peptide solution. 10 μL of 2× enzyme solution was added into the 384-well reaction plate. The plate was centrifuged at 1000 rpm for 1 min and incubated for 15 min at 25° C. • 2) 10 μL of 2× peptide solution was then transferred to the 384 reaction plate, and the plate was centrifuged at 1000 rpm for 1 min and incubate for 90 min at 25° C.

IC50 [nM]	SMILES
10 to 100	Cc1nnc(CNC(=O)c2ncc(NC(=O)c3cc(F)c(-c4ccc(F)cc4N)cc3Cl)cc2Cl)o1 [Example A462, 5-(2′-amino-5-chloro-2,4′-difluoro-[1,1′-biphenyl]-4-carboxamido)-3-chloro-N-((5-methyl-1,3,4-oxadiazol-2-yl)methyl)picolinamide]
10 to 100	Nc1cc(F)ccc1-c1cc(Cl)c(C(=O)Nc2cnc(C(=O)NCc3nc[nH]n3)c(Cl)c2)cc1F [Example A463, N-((1H-1,2,4-triazol-3-yl)methyl)-5-(2′-amino-5-chloro-2,4′-difluoro-[1,1′-biphenyl]-4-carboxamido)-3-chloropicolinamide]
10 to 100	CCSCCNC(=O)c1ncc(NC(=O)c2cc(F)c(-c3ccc(F)cc3N)cc2Cl)cc1Cl [Example A464, 5-(2′-amino-5-chloro-2,4′-difluoro-[1,1′-biphenyl]-4-carboxamido)-3-chloro-N-(2-(ethylthio)ethyl) picolinamide]
10 to 100	NC(=O)CNC(=O)c1ncc(NC(=O)c2cc(F)c(-c3ccc(F)cc3N)cc2Cl)cc1Cl [Example A465, N-(2-amino-2-oxoethyl)-5-(2′-amino-5-chloro-2,4′-difluoro-[1,1′-biphenyl]-4-carboxamido)-3-chloropicolinamide]
10 to 100	N#CC1(CNC(=O)c2ncc(NC(=O)c3cc(F)c(-c4ccc(F)cc4N)cc3Cl)cc2Cl)CC1 [Example A466, 5-(2′-amino-5-chloro-2,4′-difluoro-[1,1′-biphenyl]-4-carboxamido)-3-chloro-N-((1-cyanocyclopropyl)methyl)picolinamide]
100 to 500	Nc1cc(F)ccc1-c1cc(Cl)c(C(=O)Nc2cnc(C(=O)NCC(F)(F)C(F)(F)F)c(Cl)c2)cc1F [Example A467, 5-(2′-amino-5-chloro-2,4′-difluoro-[1,1′-biphenyl]-4-carboxamido)-3-chloro-N-(2,2,3,3,3-pentafluoropropyl) picolinamide]
100 to 500	Nc1cc(F)ccc1-c1cc(Cl)c(C(=O)Nc2cnc(C(=O)NCC3(C(F)(F)F)CC3)c(Cl)c2)cc1F [Example A468, 5-(2′-amino-5-chloro-2,4′-difluoro-[1,1′-biphenyl]-4-carboxamido)-3-chloro-N-((1-(trifluoromethyl)cyclopropyl)methyl) picolinamide]
10 to 100	CS(=O)(=O)CCNC(=O)c1ncc(NC(=O)c2cc(F)c(-c3ccc(F)cc3N)cc2Cl)cc1Cl [Example A469, 5-(2′-amino-5-chloro-2,4′-difluoro-[1,1′-biphenyl]-4-carboxamido)-3-chloro-N-(2-(methylsulfonyl)ethyl) picolinamide]
≤ 10	C#Cc1cncc(N)c1-c1cc(Cl)c(C(=O)Nc2cnc(C(=O)NCC(F)F)c(Cl)c2)cc1F [Example A471, 5-(4-(3-amino-5-ethynylpyridin-4-yl)-2-chloro-5-fluorobenzamido)-3-chloro-N-(2,2-difluoroethyl)picolinamide]
≤ 10	C#Cc1cncc(N)c1-c1cc(Cl)c(C(=O)Nc2cnc(C(=O)NCCF)c(Cl)c2)cc1F [Example A472, 5-(4-(3-amino-5-ethynylpyridin-4-yl)-2-chloro-5-fluorobenzamido)-3-chloro-N-(2-fluoroethyl)picolinamide]
≤ 10	Nc1cncc(C2CC2)c1-c1cc(Cl)c(C(=O)Nc2cnc(-n3nccn3)c(C(F)(F)F)c2)cc1F [Example A475, N-(6-(2H-1,2,3-triazol-2-yl)-5-(trifluoromethyl)pyridin-3-yl)-4-(3-amino-5-cyclopropylpyridin-4-yl)-2-chloro-5-fluorobenzamide]
≤ 10	C#Cc1cncc(N)c1-c1cc(Cl)c(C(=O)Nc2cnc(C(=O)NCC(C)(C)C)c(Cl)c2)cc1F [Example A478, 5-(4-(3-amino-5-ethynylpyridin-4-yl)-2-chloro-5-fluorobenzamido)-3-chloro-N-neopentylpicolinamide]
≤ 10	C#Cc1cncc(N)c1-c1cc(Cl)c(C(=O)Nc2cnc(C(=O)NCC)c(Cl)c2)cc1F [Example A479, 5-(4-(3-amino-5-ethynylpyridin-4-yl)-2-chloro-5-fluorobenzamido)-3-chloro-N-ethylpicolinamide]
≤ 10	C#Cc1cnc(F)c(N)c1-c1cc(Cl)c(C(=O)Nc2cnc(-n3nccn3)c(Cl)c2)cc1F [Example A485, 4-(3-amino-5-ethynyl-2-fluoropyridin-4-yl)-2-chloro-N-(5-chloro-6-(2H-1,2,3-triazol-2-yl)pyridin-3-yl)-5-fluorobenzamide]
≤ 10	C#Cc1c(F)ncc(N)c1-c1cc(Cl)c(C(=O)Nc2cnc(-n3nccn3)c(Cl)c2)cc1F [Example A486, 4-(5-amino-3-ethynyl-2-fluoropyridin-4-yl)-2-chloro-N-(5-chloro-6-(2H-1,2,3-triazol-2-yl)pyridin-3-yl)-5-fluorobenzamide]
≤ 10	C=C(C)c1cncc(N)c1-c1cc(Cl)c(C(=O)Nc2cnc(-n3nccn3)c(Cl)c2)cc1F [Example A504, 4-(3-amino-5-(prop-1-en-2-yl)pyridin-4-yl)-2-chloro-N-(5-chloro-6-(2H-1,2,3-triazol-2-yl)pyridin-3-yl)-5-fluorobenzamide]
≤ 10	C=Cc1cncc(N)c1-c1cc(Cl)c(C(=O)Nc2cnc(-n3nccn3)c(Cl)c2)cc1F [Example A507, 4-(3-amino-5-vinylpyridin-4-yl)-2-chloro-N-(5-chloro-6-(2H-1,2,3-triazol-2-yl)pyridin-3-yl)-5-fluorobenzamide]
≤ 10	Nc1cncc(Br)c1-c1cc(Cl)c(C(=O)Nc2cnc(-n3nccn3)c(C(F)(F)F)c2)cc1F [Example A517, N-(6-(2H-1,2,3-triazol-2-yl)-5-(trifluoromethyl)pyridin-3-yl)-4-(3-amino-5-bromopyridin-4-yl)-2-chloro-5-fluorobenzamide]
≤ 10	C#Cc1cncc(N)c1-c1cc(Cl)c(C(=O)Nc2ccnc(C(F)(F)F)c2)cc1F [Example A518, 4-(3-amino-5-ethynylpyridin-4-yl)-2-chloro-5-fluoro-N-(2-(trifluoromethyl)pyridin-4-yl)benzamide]
≤ 10	Nc1cnc(F)c(Br)c1-c1cc(Cl)c(C(=O)Nc2cnc(-n3nccn3)c(C(F)(F)F)c2)cc1F [Example A521, N-(6-(2H-1,2,3-triazol-2-yl)-5-(trifluoromethyl)pyridin-3-yl)-4-(5-amino-3-bromo-2-fluoropyridin-4-yl)-2-chloro-5-fluorobenzamide]
≤ 10	C#Cc1cnc(C)c(N)c1-c1cc(Cl)c(C(=O)Nc2cnc(-n3nccn3)c(C(F)(F)F)c2)cc1F [Example A551, N-(6-(2H-1,2,3-triazol-2-yl)-5-(trifluoromethyl)pyridin-3-yl)-4-(3-amino-5-ethynyl-2-methylpyridin-4-yl)-2-chloro-5-fluorobenzamide]
≤ 10	C#Cc1cnc(F)c(N)c1-c1cc(Cl)c(C(=O)Nc2cnc(-n3nccn3)c(C(F)(F)F)c2)cc1F [Example A552, N-(6-(2H-1,2,3-triazol-2-yl)-5-(trifluoromethyl)pyridin-3-yl)-4-(3-amino-5-ethynyl-2-fluoropyridin-4-yl)-2-chloro-5-fluorobenzamide]
≤ 10	C#Cc1cnc(Cl)c(N)c1-c1cc(Cl)c(C(=O)Nc2cnc(-n3nccn3)c(C(F)(F)F)c2)cc1F [Example A553]
